Patent US20240209353A1, “NADK2 INHIBITION IN CANCER AND FIBROTIC DISORDERS” (Memorial Sloan-Kettering Cancer Center, priority 2021, published 2024)
Read-outs that look alike come from different tables or passages of the source.

Tests used:
[1] = test system: DLD1 and T47D cells; assay: Cell death quantification (ferroptosis sensitivity); assay type: cell-based
Procedure: Cells were seeded in 96-well plates at appropriate cell densities (DLD1: 10000 cells/well, T47D: 15000 cells/well), and incubated overnight at 37° C. containing 5% CO2. Contact-inhibited MEFs were seeded in 24-well plates and incubated as described above. Cell were then subjected to treatments as described in figures. Cells were stained with Hoechst 33342 (0.1 μg/ml) to monitor total cell number, and with Sytox Green (5 nM) to monitor cell death. Culture plates were read by Cytation 5 at indicated time point. Percentage of cell death was calculated as Sytox Green-positive cell number over total cell number.

[2] = test system: NIH-3T3 cells; conditions: 0.15 mM proline in culture medium
Procedure: (§1) Cells were lysed in RIPA lysis buffer (Millipore 20-188) supplemented with protease inhibitors (Thermo Fisher, 78428). Protein concentration was determined by BCA protein assay (Thermo Fisher, 23228), following which equal amount of protein was loaded and separated in polyacrylamide gels. Protein was then transferred to nitrocellulose membrane for immunoblotting.

[3] = test system: MEFs; conditions: 300 μM proline added to culture medium
Procedure: as §1

[4] = test system: MEFs; conditions: proline supplementation to the medium
Procedure: In brief, confluent MEFs were grown for two days on plates coated with 0.1% gelatin in the presence of 50 μM ascorbate (Sigma, A4034) in the indicated medium. Plates were decellularized with 20 mM ammonium hydroxide/0.5% Triton X-100 for 5 min on a rotating platform. Three times the volume of PBS was added, and ECM was equilibrated overnight at 4° C., followed by four additional PBS washes. To measure collagen abundance, extracted ECM was stained with the Picro Sirius Red Stain Kit (Abcam, ab150681) according to the manufacturer's instructions. The stain was extracted with 0.1 M NaOH, and optical density was measured at 550 nm using a microplate reader. Values were normalized to the packed cell volume of cells grown on a separate plate under the same experimental conditions.

[5] = test system: T47D, MCF10A, HaCaT and DLD1 cells; assay: Cell proliferation (cell number fold change); assay type: cell-based, human; conditions: supplements at concentrations present in DMEM/F12
Procedure: FIGS. 3A-3B show cell proliferation measured as cell number fold change (Day 4/Day 0) of T47D cells treated with sgCtrl, sgNADK2-1, or sgNADK2-2, cultured in the indicated medium and supplementation. “LA” is lipoic acid. “Pyr” is pyruvate. “Cu” is cupric sulfate. “Zn” is zinc sulfate. “B12” is vitamin B12. “A” is alanine. “D” is aspartate. “N” is asparagine. “E” is glutamate, and “P” is proline. All supplements were added at the concentrations present in DMEM/F12. […] FIGS. 3D-3F show a Western blot (FIG. 3D), proline abundance measured by GC-MS (FIG. 3E), and cell proliferation (FIG. 3F) of DMEM-cultured T47D cells treated with sgCtrl or sgNADK2-2 and ectopically expressing vector or NADK2 cDNA resistant to sgNADK2-2 mediated CRISPR-Cas9 genome editing. FIGS. 3G-3I show a Western blot (FIG. 3G), proline abundance measured by GC-MS (FIG. 3H), and cell proliferation (FIG. 3I) of DMEM-cultured T47D cells treated with sgCtrl, sgNADK2-1, or sgNADK2-2 and ectopically expressing vector or the POS5 cDNA. All error bars represent mean+SD, n=3. In FIGS. 3A-3C, 3H, and 3I, one-way ANOVA was performed. In FIGS. 3E and 3F, a two-sided t-test was performed with Welch's correction. ** P<0.01; *** P<0.001; n.s., P>0.05.
FIGS. 8D-8H show cell proliferation measured as cell number fold change of the indicated cells with sgCtrl, sgNADK2-1, or sgNADK2-2, cultured in the indicated medium and supplementation. […]

[6] = test system: DLD1, T47D and HaCaT cells; assay: Western blot: GSH synthesis enzymes, peroxiredoxin oxidation; assay type: cell-based, human; conditions: 100 μM MitoPQ, 24 hours; similar extent in cells lacking NADK2 and control cells
Description: Protein was then transferred to nitrocellulose membrane for immunoblotting.

Structure (SMILES): COC(=O)c1ccc([C@@H]2c3[nH]c4ccccc4c3C[C@@H](C(=O)OC)N2C(=O)CCl)cc1 [RSL3]
- cell death of cells lacking NADK2 upon ferroptosis inducer ([1]; vs control cells, 24 or 48 hours): no increase in cell death

Structure (SMILES): O=C(O)[C@@H]1CCCN1 [proline, L-proline]
- expression of collagen protein in P5CS-deleted cells upon proline addition [2]: restored
- ATF4 accumulation in cells lacking NADK2 [3]: blunted
- collagen expression in cells lacking NADK2 [3]: restored
- collagen secretion of fibroblasts lacking NADK2 upon supplementation [4]: rescued
- growth of cells lacking NADK2 in DMEM upon supplementation [5]: necessary and sufficient to restore proliferation

Structure (SMILES): C[n+]1ccc(-c2cc[n+](CCCCCCCCCC[P+](c3ccccc3)(c3ccccc3)c3ccccc3)cc2)cc1.[I-].[I-].[I-] [MitoParaquat]
- expression of enzymes involved in GSH synthesis [6]: increased

Structure (SMILES): CCOc1ccccc1-n1c(C(C)N2CCN(C(=O)COc3ccc(Cl)cc3)CC2)nc2ccccc2c1=O (centres unmarked) [Erastin]
- cell death of cells lacking NADK2 upon ferroptosis inducer [1]: no increase in cell death
